Laboratory results as given in patent publication US8063048B2, “Acetylenyl-pyrazolo-pyrimidine derivatives” (Hoffmann-La Roche Inc., priority 2005, dated 2011).

| Structure (SMILES) | melting point [°C] |
| --- | --- |
| Cc1cc(C#Cc2cnn3c(C(F)(F)F)cc(-c4ccc(C(F)(F)F)cc4)nc23)cnc1N [Example 127, 3-Methyl-5-[7-trifluoromethyl-5-(4-trifluoromethyl-phenyl)-pyrazolo[1,5-a]pyrimidin-3-ylethynyl]-pyridin-2-ylamine] | 233 to 234 |
| Cc1nc(N)ccc1C#Cc1cnn2c(C(F)(F)F)cc(-c3ccc(C(F)(F)F)cc3)nc12 [Example 128, 6-Methyl-5-[7-trifluoromethyl-5-(4-trifluoromethyl-phenyl)-pyrazolo[1,5-a]pyrimidin-3-ylethynyl]-pyridin-2-ylamine] | 251 to 254 |
| O=S(=O)(c1cccc(C#Cc2cnn3c(C(F)(F)F)cc(-c4ccc(C(F)(F)F)cc4)nc23)c1)N1CCOCC1 [Example 129, 3-[3-(morpholine-4-sulfonyl)-phenylethynyl]-7-trifluoromethyl-5-(4-trifluoromethyl-phenyl)-pyrazolo[1,5-a]pyrimidine] | 203 to 204 |
| CNS(=O)(=O)c1cccc(C#Cc2cnn3c(C(F)(F)F)cc(-c4ccc(C(F)(F)F)cc4)nc23)c1 [Example 130, N-Methyl-3-[7-trifluoromethyl-5-(4-trifluoromethyl-phenyl)-pyrazolo[1,5-a]pyrimidin-3-ylethynyl]-benzenesulfonamide] | 213 to 214 |
| COCCNS(=O)(=O)c1cccc(C#Cc2cnn3c(C(F)(F)F)cc(-c4ccc(C(F)(F)F)cc4)nc23)c1 [Example 131, N-(2-Methoxy-ethyl)-3-[7-trifluoromethyl-5-(4-trifluoromethyl-phenyl)-pyrazolo[1,5-a]pyrimidin-3-ylethynyl]-benzenesulfonamide] | 186 to 188 |
| O=S(=O)(NCCO)c1cccc(C#Cc2cnn3c(C(F)(F)F)cc(-c4ccc(C(F)(F)F)cc4)nc23)c1 [Example 132, N-(2-Hydroxy-ethyl)-3-[7-trifluoromethyl-5-(4-trifluoromethyl-phenyl)-pyrazolo[1,5-a]pyrimidin-3-ylethynyl]-benzenesulfonamide] | 213 |
| CN(C)CCNS(=O)(=O)c1cccc(C#Cc2cnn3c(C(F)(F)F)cc(-c4ccc(C(F)(F)F)cc4)nc23)c1 [Example 133, N-(2-Dimethylamino-ethyl)-3-[7-trifluoromethyl-5-(4-trifluoromethyl-phenyl)-pyrazolo[1,5-a]pyrimidin-3-ylethynyl]-benzenesulfonamide] | 146 to 147 |
| CN(C)CCNS(=O)(=O)c1cc(C#Cc2cnn3c(C(F)F)cc(-c4ccc(C(F)(F)F)cc4)nc23)c(F)cc1F [Example 134, 5-[7-Difluoromethyl-5-(4-trifluoromethyl-phenyl)-pyrazolo[1,5-a]pyrimidin-3-ylethynyl]-N-(2-dimethylamino-ethyl)-2,4-difluoro-benzenesulfonamide] | 165 to 166 |
| O=S(=O)(NCCO)c1cc(C#Cc2cnn3c(C(F)F)cc(-c4ccc(C(F)(F)F)cc4)nc23)c(F)cc1F [Example 135, 5-[7-Difluoromethyl-5-(4-trifluoromethyl-phenyl)-pyrazolo[1,5-a]pyrimidin-3-ylethynyl]-2,4-difluoro-N-(2-hydroxy-ethyl)-benzenesulfonamide] | 149 to 150 |
| CN(C)S(=O)(=O)c1ccc(C#Cc2cnn3c(C(F)F)cc(-c4ccc(C(F)(F)F)cc4)nc23)cc1 [Example 136, 4-[7-Difluoromethyl-5-(4-trifluoromethyl-phenyl)-pyrazolo[1,5-a]pyrimidin-3-ylethynyl]-N,N-dimethyl-benzenesulfonamide] | 211 to 212 |
| O=S(=O)(c1ccc(C#Cc2cnn3c(C(F)F)cc(-c4ccc(C(F)(F)F)cc4)nc23)cc1)N1CCOCC1 [Example 137, 7-Difluoromethyl-3-[4-(morpholine-4-sulfonyl)-phenylethynyl]-5-(4-trifluoromethyl-phenyl)-pyrazolo[1,5-a]pyrimidine] | 227 to 228 |
| CNS(=O)(=O)c1ccc(C#Cc2cnn3c(C(F)F)cc(-c4ccc(C(F)(F)F)cc4)nc23)cc1 [Example 138, 4-[7-difluoromethyl-5-(4-trifluoromethyl-phenyl)-pyrazolo[1,5-a]pyrimidin-3-ylethynyl]-N-methyl-benzenesulfonamide] | 202 to 203 |
| COCCNS(=O)(=O)c1ccc(C#Cc2cnn3c(C(F)F)cc(-c4ccc(C(F)(F)F)cc4)nc23)cc1 [Example 139, 4-[7-Difluoromethyl-5-(4-trifluoromethyl-phenyl)-pyrazolo[1,5-a]pyrimidin-3-ylethynyl]-N-(2-methoxy-ethyl)-benzenesulfonamide] | 184 to 186 |
| O=S(=O)(NCCO)c1ccc(C#Cc2cnn3c(C(F)F)cc(-c4ccc(C(F)(F)F)cc4)nc23)cc1 [Example 140, 4-[7-Difluoromethyl-5-(4-trifluoromethyl-phenyl)-pyrazolo[1,5-a]pyrimidin-3-ylethynyl]-N-(2-hydroxy-ethyl)-benzenesulfonamide] | 191 to 194 |
| CN(C)CCNS(=O)(=O)c1ccc(C#Cc2cnn3c(C(F)F)cc(-c4ccc(C(F)(F)F)cc4)nc23)cc1 [Example 141, 4-[7-Difluoromethyl-5-(4-trifluoromethyl-phenyl)-pyrazolo[1,5-a]pyrimidin-3-ylethynyl]-N-(2-dimethylamino-ethyl)-benzenesulfonamide] | 157 to 159 |
| Cc1cc(C#Cc2cnn3c(C(F)F)cc(-c4ccc(C(F)(F)F)cc4)nc23)cnc1N [Example 142, 5-[7-Difluoromethyl-5-(4-trifluoromethyl-phenyl)-pyrazolo[1,5-a]pyrimidin-3-ylethynyl]-3-methyl-pyridin-2-ylamine] | 194 to 195 |
| Cc1nc(N)ccc1C#Cc1cnn2c(C(F)F)cc(-c3ccc(C(F)(F)F)cc3)nc12 [Example 143, 5-[7-Difluoromethyl-5-(4-trifluoromethyl-phenyl)-pyrazolo[1,5-a]pyrimidin-3-ylethynyl]-6-methyl-pyridin-2-ylamine] | 243 to 246 |

The remaining lines, values ahead:

| melting point [°C] | Structure (SMILES) |
| --- | --- |
| 175 to 176 | O=S(=O)(c1cccc(C#Cc2cnn3c(C(F)F)cc(-c4ccc(C(F)(F)F)cc4)nc23)c1)N1CCOCC1 [Example 144, 7-Difluoromethyl-3-[3-(morpholine-4-sulfonyl)-phenylethynyl]-5-(4-trifluoromethyl-phenyl)-pyrazolo[1,5-a]pyrimidine] |
| 192 to 194 | CNS(=O)(=O)c1cccc(C#Cc2cnn3c(C(F)F)cc(-c4ccc(C(F)(F)F)cc4)nc23)c1 [Example 145, 3-[7-Difluoromethyl-5-(4-trifluoromethyl-phenyl)-pyrazolo[1,5-a]pyrimidin-3-ylethynyl]-N-methyl-benzenesulfonamide] |
| 147 to 148 | COCCNS(=O)(=O)c1cccc(C#Cc2cnn3c(C(F)F)cc(-c4ccc(C(F)(F)F)cc4)nc23)c1 [Example 146, 3-[7-Difluoromethyl-5-(4-trifluoromethyl-phenyl)-pyrazolo[1,5-a]pyrimidin-3-ylethynyl]-N-(2-methoxy-ethyl)-benzenesulfonamide] |
| 113 to 115 | O=S(=O)(NCCO)c1cccc(C#Cc2cnn3c(C(F)F)cc(-c4ccc(C(F)(F)F)cc4)nc23)c1 [Example 147, 3-[7-Difluoromethyl-5-(4-trifluoromethyl-phenyl)-pyrazolo[1,5-a]pyrimidin-3-ylethynyl]-N-(2-hydroxy-ethyl)-benzenesulfonamide] |
| 160 to 162 | CN(C)CCNS(=O)(=O)c1cccc(C#Cc2cnn3c(C(F)F)cc(-c4ccc(C(F)(F)F)cc4)nc23)c1 [Example 148, 3-[7-Difluoromethyl-5-(4-trifluoromethyl-phenyl)-pyrazolo[1,5-a]pyrimidin-3-ylethynyl]-N-(2-dimethylamino-ethyl)-benzenesulfonamide] |
| 213 to 216 | Fc1ccc(C#Cc2cnn3c(C(F)(F)F)cc(-c4ccc(C(F)(F)F)cc4)nc23)cn1 [Example 149, 3-(6-Fluoro-pyridin-3-ylethynyl)-7-trifluoromethyl-5-(4-trifluoromethyl-phenyl)-pyrazolo[1,5-a]pyrimidine] |
| 282 to 284 | Cc1cc(-c2ccc(C(F)(F)F)cc2)nc2c(C#Cc3ccc(S(N)(=O)=O)cc3)cnn12 [Example 150, 4-[7-Methyl-5-(4-trifluoromethyl-phenyl)-pyrazolo[1,5-a]pyrimidin-3-ylethynyl]-benzenesulfonamide] |
| 214 to 216 | Cc1cc(-c2ccc(C(F)(F)F)cc2)nc2c(C#Cc3cccc(S(N)(=O)=O)c3)cnn12 [Example 151, 3-[7-Methyl-5-(4-trifluoromethyl-phenyl)-pyrazolo[1,5-a]pyrimidin-3-ylethynyl]-benzenesulfonamide] |
| 214 to 215 | Cc1cc(-c2ccc(C(F)(F)F)cc2)nc2c(C#Cc3ccc(S(N)(=O)=O)s3)cnn12 [Example 152, 5-[7-Methyl-5-(4-trifluoromethyl-phenyl)-pyrazolo[1,5-a]pyrimidin-3-ylethynyl]-thiophene-2-sulfonic acid amide] |
| 267 to 269 | CC(C)(O)c1cc(-c2ccc(Cl)cc2)nc2c(C#Cc3ccc(S(N)(=O)=O)cc3)cnn12 [Example 153, 4-[5-(4-Chloro-phenyl)-7-(1-hydroxy-1-methyl-ethyl)-pyrazolo[1,5-a]pyrimidin-3-ylethynyl]-benzenesulfonamide] |
| 206 to 208 | CC(C)(O)c1cc(-c2ccc(Cl)cc2)nc2c(C#Cc3ccc(S(N)(=O)=O)s3)cnn12 [Example 154, 5-[5-(4-Chloro-phenyl)-7-(1-hydroxy-1-methyl-ethyl)-pyrazolo[1,5-a]pyrimidin-3-ylethynyl]-thiophene-2-sulfonic acid amide] |
| 238 to 240 | NS(=O)(=O)c1ccc(C#Cc2cnn3c(CO)cc(-c4ccc(Cl)cc4)nc23)cc1 [Example 155, 4-[5-(4-Chloro-phenyl)-7-hydroxymethyl-pyrazolo[1,5-a]pyrimidin-3-ylethynyl]-benzenesulfonamide] |
| 194 to 196 | NS(=O)(=O)c1ccc(C#Cc2cnn3c(CO)cc(-c4ccc(Cl)cc4)nc23)s1 [Example 156, 5-[5-(4-Chloro-phenyl)-7-hydroxymethyl-pyrazolo[1,5-a]pyrimidin-3-ylethynyl]-thiophene-2-sulfonic acid amide] |
